What is called Km is the concentration of substrate that gives half-maximal velocity.

Read-outs that look alike come from different tables or passages of the source.

The values that follow come from patent US5612188A, “Automated, multicompartmental cell culture system” (Cornell Research Foundation, Inc., priority 1994, dated 1997).

The conditions of series [1]: 45 mg/kg, 72 hours; cited from earlier work.
Series [2] relates to sheep liver glutathione-S-arene oxide transferase. As to the kind of experiment: Km's for conjugation of GSH and naphthalene oxide, partially purified transferase. Format: in vitro ADME. The following applies: one-half of value for racemic naphthalene oxide, pH 7.4, read-out: Km for 1R, 2S-- or 1S, 2R-- NO (conjugation with GSH). The source says:
(§1) The rate of reaction of naphthalene oxide with GSH is assumed to be of the form V=Vmax*{1GSH/(GSH+Kml)}*{NO/(NO+Km2)}. […] Work with partially purified sheep liver glutathione-S-arene oxide transferase has provided Km's for conjugation of GSH and racemic naphthalene oxide at pH 7.4 (Hayakawa, T., LeMahieu, R. A., and Udenfriend, S., "Studies on Glutathione-S-arene Oxide Transferase--a Sensitive Assay", Arch. Biochem. Biophys. 162: 223-230 (1974), which is hereby incorporated by reference). Individual glutathione-S-transferase isozymes are enantioselective with respect to naphthalene oxide (O'Brien, K. A. F., Suverkropp, C., Kanekal, S., Plopper, C. G., and Buckpitt, A. R., "Tolerance to Multiple Doses of the Pulmonary Toxicant, Naphthalene", Toxicol. Appl. Pharmacol. 99: 487-500 (1989), which is hereby incorporated by reference), but GSH conjugation proceeds equally fast with 1R, 2S- and 1S, 2R-naphthalene oxide (Buonarati, M., Jones, A. D., and Buckpitt, A., "In vivo Metabolism of Isomeric Naphthalene Oxide Glutathione Conjugates", Drug Metab. Dispos. 18: 183-189 (1990), which is hereby incorporated by reference). Therefore Vmax's for conjugation with each enantiomer are assumed equal, and the Km for reaction with each enantiomer is assumed to be one-half of the value reported for racemic naphthalene oxide.

The next series concerns human lymphocytes. Kind of series: Viability of human lymphocytes after 24 hr BrdU exposure and 30 sec UV light in the multicompartmental cell culture system (trypan blue). Format: cell-based. The following applies: 750 mg BrdU in 500 mL system. How it is done:
Approximately 14 mL of freshly drawn human blood were collected into EDTA tubes (Becton Dickinson, Lincoln Park, N.J.). To this blood sample was added 4 mL of Hanks balanced salt solution. Two and one-half mL of the blood solution was layered onto 3 mL of ficoll (Pharmacia, Piscataway, N.J.) and centrifuged at 1500 rpm for 20 min at ambient temperature. The pellet was washed in an equal volume of Hanks balanced salt solution and recentrifuged. All lymphocytes collected from the 14 mL blood sample were seeded into 100 mL of RPMI 1640 (Gibco, Grand Island, N.Y.) and placed in a Forma Scientific water-jacketed incubator (Fisher Scientific, Philadelphia, Pa.) set at 37° C. with 5 percent CO2 overnight.
The multicompartmental cell culture system ("MCCS") of the present invention was used to expose both normal and transformed cells to an antineoplastic compound simultaneously. The volume of distribution of the system was 500 mL. Each compartment (T-flask, Becton Dickinson, Lincoln Park, N.J.) contained 75 mL of cell culture medium (RPMI 1640 as previously described). […]
(§2) Following the 24 hr. exposure period, both human lymphocytes and rat hepatoma cells were exposed to a UV light source for 30 sec. Viable cells were determined and enumerated by trypan blue dye exclusion on a hemacytometer immediately following UV exposure.

In a further series the test system is H4IIE cells. As to the kind of experiment: Viability of H4IIE hepatoma cells after 24 hr BrdU exposure and 30 sec UV light in the multicompartmental cell culture system (trypan blue). In kind it is cell-based, rat. How it is done:
A rat hepatoma cell line, H4IIE obtained from the American Type Culture Collection (Bethesda, Md.), was cultured in RPMI Medium 1640 with 5 percent fetal calf serum, L-glutamine and antibiotics (penicillin G, streptomycin and amphotericin B) (Gibco Island, N.Y.). Cells were seeded 24 hr before the experiment. Attachment of H4IIE cells occurs several hours following seeding. Density was approximately 20 percent of confluence at the start of the experiment.
The multicompartmental cell culture system ("MCCS") of the present invention was used to expose both normal and transformed cells to an antineoplastic compound simultaneously. The volume of distribution of the system was 500 mL. Each compartment (T-flask, Becton Dickinson, Lincoln Park, N.J.) contained 75 mL of cell culture medium (RPMI 1640 as previously described). The flow rate was set at 5 mL per min. and maintained by means of a peristaltic pump (Millipore, Bedford, Mass.). The entire system was placed inside a Forma Scientific water-jacketed incubator (Fisher Scientific, Philadelphia, Pa.) set at 37° C. with 5 percent CO2. […]
as §2

Series [3] relates to sheep liver glutathione-S-arene oxide transferase. Particulars: read-out: Km for GSH, pH 7.4, cited from earlier work.
Series [4] concerns lung microsomes. Kind of series: Conjugation of naphthalene oxide with GSH, rat lung. Also noted: unit not given here. The following applies: assumed equal for each enantiomer. Format: in vitro ADME. The source says: (§3) Determination of Vmax's and Km's for naphthalene oxide production and Vmax's for GSH conjugates and dihydrodiol production in rat microsomes were done in the same way as for the mouse. Sources of data were Buckpitt, et al, 1987, supra, Hesse, S. and Mezger, M., "Involvement of Phenolic Metabolites in the Irreversible Protein-binding of Aromatic Hydrocarbons: Reactive Metabolites of [^14 C]-naphthalene and [^14 C] 1-naphthol Formed by Rat Liver Microsomas", Mol. Pharmacol. 16: 667-675 (1979) which is hereby incorporated by reference, O'Brien et al., 1985, supra, van Bladeren et al., 1985, supra, and Yost, G. S., Buckpitt, A. R., Roth, R. A., and McLemore, T. L., "Mechanisms of Lung Injury by Systematically Administered Chemicals", Toxicol. Appl. Pharmacol. 101: 179-195 (1989), which is hereby incorporated by reference.

For series [5], the system named is liver microsomes and cytosolic protein. As to the kind of experiment: Conjugation of naphthalene oxide with GSH, mouse liver. The following applies: assumed equal for each enantiomer. In kind it is in vitro ADME.
Excerpt: as §1

Series [6] deals with lung microsomes and cytosolic protein. As to the kind of experiment: Conjugation of naphthalene oxide with GSH, mouse lung. In kind it is in vitro ADME. Particulars: assumed equal for each enantiomer.
Excerpt: as §1

Another series has as its system protein. Kind of series: Covalent binding of naphthalene oxide to protein in hepatocytes. Format: in vitro ADME. The following applies: non-enzymatic; from hepatocyte incubations. How it is done: The first order rate constant for non-enzymatic rearrangement of naphthalene oxide to 1-naphthol has been reported (van Bladeran et al., 1985, supra). The rate of covalent binding was determined from data reported for incubations of hepatocytes with naphthalene oxide (Buonarati et al., 1989, supra).

Series [7] relates to liver microsomes. Kind of series: Conjugation of naphthalene oxide with GSH, rat liver. In kind it is in vitro ADME. Also noted: unit not given here. The following applies: assumed equal for each enantiomer.
Excerpt: as §3

For series [8] the following is noted: non-enzymatic; cited from earlier work.
Series [9] concerns lung microsomes. The following applies: 48 hours after xylene; cited from earlier work.
The test system of a further series is liver GSH. The following applies: 48 hours after xylene; cited from earlier work.
Series [10] relates to liver microsomes. Particulars: 48 hours after xylene; cited from earlier work.

Consider `Oc1cccc2ccccc12` [1 naphthol, 1-Naphthol], for which the “percent of dose recovered” value in [1] is “Eighty-one”.
As to `C1=C[C@@H]2O[C@@H]2c2ccccc21` [1R, 2S NO, 1R, 2S-naphthalene oxide], the Km in series [2] (Mouse) and in series [2] (Rat) was 50 µM throughout.
Take `C1=C[C@H]2O[C@H]2c2ccccc21` [1S, 2R NO, 1S, 2R-naphthalene oxide]: the Km in [2] (Mouse) and in series [2] (Rat) was 50 µM in each case.
As for `O=c1[nH]c(=O)n([C@H]2C[C@H](O)[C@@H](CO)O2)cc1Br` [BrdU, 5-bromo-2'-deoxyuridine], the “viable human lymphocytes following UV exposure” value in the series on human lymphocytes was “Eighty-nine”. For the same molecule, the “viable H4IIE cells following UV exposure” value in the series on H4IIE cells (750 mg BrdU in 500 mL system, 30 sec UV) was “fifty-three”. Further, the “uptake of BrdU by hepatoma cells versus lymphocytes” value with H4IIE cells (MCCS, inferred from killing) is “greater uptake of the BrdU by the hepatoma cells than the lymphocytes”.
Turning to `N[C@@H](CCC(=O)N[C@@H](CS)C(=O)NCC(=O)O)C(=O)O` [GSH, glutathione], the Km in [3] (Mouse) and in [3] (Rat) was 3300 µM each time.
As for `C1=CC2OC2c2ccccc21` (stereo not shown) [NO, naphthalene oxide], the “Vmax, conjugation with GSH” value with lung microsomes [4] was found to be 400; in series [5], 150 nmol/mg/min; in series [6] it was 22.5 nmol/mg/min; in the series on liver microsomes [7], 500. The Binding to protein with protein is given as 0.2 pmole/mg/min/μM NO. In addition, the “First order rate constant for rearrangement to 1-napthol” value in [8] is 0.25 min⁻¹.
With xylene, in the series on lung microsomes [9], the “metabolism of naphthalene by lung microsomes, percent of the normal rate” value is 56%. The GSH levels result in the series with liver GSH is “return to normal”. Moreover, the “metabolism of naphthalene by liver microsomes” value in the series with liver microsomes [10] is given as “return to normal”.
